From US7858738B2, “Synthetic human peptides and pharmaceutical compositions comprising them for the treatment of systemic lupus erythematosus” (Yeda Research and Development Co., Ltd., priority 2001, dated 2010)

Legend:
BALB/c-derived LNCs = assay: In vivo inhibition of proliferation of LNC of BALB/c mice immunized with mCDR1; conditions: maximum % inhibition; 200 μg s.c. in PBS concomitant with immunization; LNC tested ten days later
Protocol: (§1) To this end, BALB/c and SJL mice were immunized with mCDR1 and mCDR3, respectively. The immunizing murine peptides were injected (10 μg/mouse) in CFA intradermally in the hind footpads. Concomitant with the immunization, groups of BALB/c mice were injected subcutaneously (s.c.) with 200 μg in PBS of hCDR1 and groups of SJL mice were similarly injected with hCDR3. Ten days after the immunization, mice were sacrificed and their lymph nodes were harvested and the cells were tested for their ability to proliferate following triggering with the immunizing peptides. Briefly, LNCs of immunized mice (0.5×10^6/well) were cultured (in triplicates) in the presence of different concentrations (1-20 μg/well) of the murine immunizing peptides in enriched RPMI-1640 medium supplemented with 1% normal mouse serum. Following four days of incubation, ^3H-thymidine was added for additional 16 hours. Cells were then harvested and radioactivity was counted using a β-counter.
(§2) The inhibition was calculated based on the proliferation of LNCs of mice that were not treated with the inhibitory peptides hCDR1 and hCDR3. It can be seen that hCDR1 and hCDR3 were capable of inhibiting the proliferative responses to the immunizing murine CDR peptides.

[1] = test system: splenocytes of (NZB×NZW)F1 mice; assay: Cytokine pattern in supernatants of splenocyte cultures of treated (NZB×NZW)F1 mice (ELISA); type: in vivo; conditions: end of treatment (10 weekly s.c. injections, 300 μg)
Protocol: (§3) Induction and treatment of experimental SLE. In order to induce experimental SLE, BALB/c mice were immunized with 1-2 μg of the human mAb 16/6Id and boosted 3 weeks later. For the prevention of experimental SLE, mice were given hCDR1 or hCDR3 (mCDR1 or revmCDR1 as control peptide in Example 12) intravenously (i.v.) or s.c. concomitant with the immunization, and were injected weekly thereafter for 5 weeks. Treatment of an established disease started three and a half months following disease induction with the 16/6Id, when clinical manifestations were already observed. In Example 12, mice received 10 weekly injections (i.v. or s.c.) of mCDR1 or revmCDR1 at a dose of 100 μg/mouse. Prevention and treatment of SLE-like disease in (NZB×NZW)F1 mice with the hCDR1 or mCDR1 peptide. For prevention of SLE, mice at the age of 2 months, before disease manifestations are observed, were injected s.c. with hCDR1 (or mCDR1 in Example 12, 250 μg/mouse) once a week for 10 weeks. To treat an established disease, mice at the age of 5-7 months were injected with hCDR1 (in Example 12, mCDR1 s.c., 250 μg/mouse) once a week for 10 weeks. Proliferative Responses. PBL were isolated from heparinized venous blood by Ficoll-Hypaque (Pharmacia) density-gradient centrifugation. […] Results are expressed as the mean thymidine incorporation in counts per minute (CPM) of triplicate culture±SD, or as stimulation index (S.I.; the ratio of mean CPM at the optimal concentration of the human 16/6Id to the mean CPM in the presence of medium alone). […] TGF-β was determined by an ELISA. […] The substrate solution used was TMB color Reagent (Helix Diagnostics, West Sacramento, Calif.), and enzyme activity was evaluated by using 570- and 630-nm filters. […] Proteinuria was measured semiquantitatively by using Combistix kit (Ames Division, Bayer Diagnostics, Newbury, U.K.). White blood cells (WBC, for leukopenia) were counted after a 10-fold dilution of heparinized blood in distilled water containing 1% acetic acid (vol/vol). […]

MMP-3 = MMP-3 levels in sera of (NZB×NZW)F1 mice (Western blot); type: in vivo; conditions: 300 μg s.c. once a week from age 7 months; sera after 5 injections; FIG. 23
Protocol: as §3

SJL-derived LNCs = assay: In vivo inhibition of proliferation of LNC of SJL mice immunized with mCDR3; conditions: maximum % inhibition; 200 μg s.c. in PBS concomitant with immunization; LNC tested ten days later
Protocol: as §1, §2

SJL-derived LNC = assay: In vivo inhibition of proliferation of SJL LNC to the human 16/6Id mAb; set-up: species or system mice; conditions: maximum % inhibition; 200 μg/mouse s.c. in PBS concomitant with priming
Protocol: Because our aim was to test the inhibitory capacity of the peptides based on the CDR of the human 16/6Id autoantibody, it was of importance to find out whether peptides hCDR1 and hCDR3 are capable of inhibiting the priming to the whole molecule of the human 16/6Id mAb. To this end, BALB/c and SJL mice were primed with the human 16/6Id mAb (2 μg/mouse) in CFA intradermally in the hind footpads. The priming was done concomitant with the s.c. administration in PBS of 200 μg/mouse of hCDR1 to groups of BALB/c mice and of hCDR3 to SJL mice. Ten days following immunization, the mice were sacrificed and their LNCs were tested in vitro for their ability to proliferate to different concentrations (0.1-10 μg/well) of the human anti-DNA 16/6Id mAb.
The results are presented as maximum % inhibition of the proliferation to the immunizing human 16/6Id mAb of lymph node cells of mice immunized and treated with the peptides hCDR1 and hCDR3 as compared with mice that were immunized with the 16/6Id mAb but were not treated with the peptides.

Row | Sequence | % Inhibition of the proliferation of BALB/c-derived LNCs to mCDR1 (BALB/c-derived LNCs) [%] | INF-γ in supernatants of Con A-stimulated splenocytes ([1]; FIG. 13A) | TGF-β in supernatants of non-stimulated splenocytes ([1]; FIG. 13C) | IL-10 in supernatants of Con A-stimulated splenocytes ([1]; to a lesser extent, FIG. 13B) | levels of MMP-3 in pooled sera (MMP-3) | % Inhibition of the proliferation of SJL-derived LNCs to mCDR3 (SJL-derived LNCs) [%] | % Inhibition of the proliferation of SJL-derived LNC to the human 16/6Id mAb (SJL-derived LNC) [%]
1 | GYYWSWIRQPPGKGEEWIG (Human) [hCDR1, 19-mer peptide based on the CDR1 of the heavy chain of the human 16/6Id mAb] | 55 | down-regulated | increased secretion | down-regulated | down regulated |  | 
2 | YYCARGLLRGGWNDVDYYGMDV (Human) [hCDR3, peptide based on the CDR3 of the heavy chain of the human 16/6Id mAb] |  |  |  |  |  | 55 | 68
